Each block holds one molecule with its values, some of them ahead of it.
What was measured:
[1] = rats; approximately
[2] = 1990, cited from earlier work
MDR1 mRNA = MDR1 mRNA expression in Caco-2 cells (qRT-PCR); type: cell-based; settings: 48 h pretreatment, bosentan 20 μM, GA 50 μM, PCA 50 μM, PCE 100 mg/ml
BCRP mRNA = BCRP mRNA expression in Caco-2 cells (qRT-PCR); type: cell-based; settings: 48 h pretreatment, bosentan 20 μM, GA 50 μM, PCA 50 μM, PCE 100 mg/ml
hOAT3 = hOAT3 (Homo sapiens, UniProt Q8TCC7); assay: Inhibition of hOAT3-mediated uptake of 3H-ES in hOAT3-MDCK cells; type: cell-based; settings: hOAT3-MDCK cells
hOAT3, sequence (Q8TCC7 whole entry): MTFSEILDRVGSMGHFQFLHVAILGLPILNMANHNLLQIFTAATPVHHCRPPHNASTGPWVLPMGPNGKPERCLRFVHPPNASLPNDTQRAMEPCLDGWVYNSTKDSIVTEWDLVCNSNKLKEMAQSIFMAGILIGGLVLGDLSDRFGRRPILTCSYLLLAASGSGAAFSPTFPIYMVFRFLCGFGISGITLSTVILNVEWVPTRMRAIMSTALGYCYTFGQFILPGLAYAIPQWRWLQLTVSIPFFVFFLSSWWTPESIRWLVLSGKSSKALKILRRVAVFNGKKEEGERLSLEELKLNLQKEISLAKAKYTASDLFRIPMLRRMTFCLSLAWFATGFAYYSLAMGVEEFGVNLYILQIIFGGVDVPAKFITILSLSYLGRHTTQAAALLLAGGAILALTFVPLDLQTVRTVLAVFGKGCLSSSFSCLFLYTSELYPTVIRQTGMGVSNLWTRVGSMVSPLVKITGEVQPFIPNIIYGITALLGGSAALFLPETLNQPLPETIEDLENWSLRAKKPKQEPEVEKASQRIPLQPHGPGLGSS
From the text: (§1) Considering the relative exposure characteristics, GA and PCA were selected as PK-marker and Q-marker components of PCE in previous studies ([Ma et al., 2015]; [Ma et al., 2016]; [Li et al., 2021b]). In this study, we investigated the concentration-dependent inhibitions of GA and PCA on multiple transporters, including OAT1, OAT3, OCT2, MDR1, and BCRP. Stably expressing cell lines of hOAT1-MDCK, hOAT3-MDCK, hOCT2-S2, hMDR1-MDCK, hBCRP-MDCK, and their mock cells were obtained from Japan Fuji Biomedical Co., Ltd. The cells were maintained in DMEM (Sigma) supplemented with 10% FCS, 1% non-essential amino acids (Sigma), and 2% L-glutamine. The medium for the Transwell® plates (Corning Costar, Cambridge, MA, United States) was supplemented with 0.1% gentamicin. Membrane filters were placed in a 12 mm well with 1.5 and 0.5 ml of culture medium in the basolateral and apical compartments, respectively. Cells were cultured at 37°C in an atmosphere of 5% CO2. The inhibition experiments were adapted from previous methods with minor modifications ([Li et al., 2021a]; [2021b]).
Briefly, the hOAT1-MDCK, hOAT3-MDCK, and hOCT2-S2 cells were trypsinized and suspended in the culture medium to provide a density of 1.5 × 10^5 cells/ml. After incubating for 48 h, the cells were washed twice with preheated DPBS and then pre-incubated with DPBS for 10 min at 37°C. 500 µl of DPBS containing probe substrates was added to initiate the uptake in the presence or absence of GA, PCA or positive inhibitors. The hMDR1-MDCK and hBCRP-MDCK cells were suspended at a density of 4.0 × 10^5 cells/ml. After cultivation for 7 days, cells were washed twice and equilibrated for 30 min at 37°C with the pre-warmed HBSS buffer. […] The radioactive intensity of ^14C-PAH, ^3H-ES, and ^14C-TEA was measured using a Tri-Carb 2910TR scintillator (PerkinElmer, United States). Fluorescence was measured at 485 nm (excitation) and 546 nm (emission) for rhodamine 123, and 425 nm (excitation) and 528 nm (emission) for lucifer yellow. IC50 values were determined by employing GraphPad Prism 9.

hOCT2 = molecular target: T1, hOCT2 (Homo sapiens, UniProt O15244); assay: Inhibition of hOCT2-mediated uptake of 14C-TEA in hOCT2-S2 cells; type: cell-based
T1 construct: host or cells: S2
T1 sequence (O15244 1-555): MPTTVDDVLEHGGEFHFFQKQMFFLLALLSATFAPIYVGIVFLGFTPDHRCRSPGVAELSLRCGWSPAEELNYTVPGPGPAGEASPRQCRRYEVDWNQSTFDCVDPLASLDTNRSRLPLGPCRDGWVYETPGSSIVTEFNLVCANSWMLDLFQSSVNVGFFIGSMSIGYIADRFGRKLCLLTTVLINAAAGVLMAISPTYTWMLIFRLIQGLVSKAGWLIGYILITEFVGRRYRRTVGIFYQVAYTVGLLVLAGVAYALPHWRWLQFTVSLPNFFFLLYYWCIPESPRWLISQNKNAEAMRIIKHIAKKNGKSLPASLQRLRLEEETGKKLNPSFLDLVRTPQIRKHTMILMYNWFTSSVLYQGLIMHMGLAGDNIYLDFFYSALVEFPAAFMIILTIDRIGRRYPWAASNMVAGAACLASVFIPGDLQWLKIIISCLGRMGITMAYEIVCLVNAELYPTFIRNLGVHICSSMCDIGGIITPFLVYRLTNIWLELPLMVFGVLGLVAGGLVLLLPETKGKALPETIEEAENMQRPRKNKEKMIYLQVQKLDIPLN
From the text: as §1, with “Membrane filters were placed in a 12 mm well with 1.5 and 0.5 ml of culture medium in the basolateral and apical compartments, respectively. Cells were cultured at 37°C in an atmosphere of 5% CO2. The inhibition experiments were adapted from previous methods with minor modifications ([Li et al., 2021a]; [2021b]).” left out
Briefly, the hOAT1-MDCK, hOAT3-MDCK, and hOCT2-S2 cells were trypsinized and suspended in the culture medium to provide a density of 1.5 × 10^5 cells/ml. […] The radioactive intensity of ^14C-PAH, ^3H-ES, and ^14C-TEA was measured using a Tri-Carb 2910TR scintillator (PerkinElmer, United States). Fluorescence was measured at 485 nm (excitation) and 546 nm (emission) for rhodamine 123, and 425 nm (excitation) and 528 nm (emission) for lucifer yellow. IC50 values were determined by employing GraphPad Prism 9.

- reduction of circulating CIP by concurrent use of PCE [1]: 40%–50%
Compound: O=C(O)c1cn(C2CC2)c2cc(N3CCNCC3)c(F)cc2c1=O [CIP, ciprofloxacin]
- share of an intravenous dose eliminated into the intestine ([2]; ref Rohwedder et al., Haslam et al., 2011): Approximately 20%
- excreted in unchanged form into the urine ([2]; ref Vance-Bryan et al.): Approximately 60%

Compound: COc1ccccc1Oc1c(NS(=O)(=O)c2ccc(C(C)(C)C)cc2)nc(-c2ncccn2)nc1OCCO [bosentan, Bosentan]
- increase of MDR1 (P-gp) mRNA expression (MDR1 mRNA): 7.36 fold
- increase of BCRP mRNA expression (BCRP mRNA): 4.31 fold

- effect of positive inhibitor on hOAT3 (hOAT3): Significant inhibitory effects
Compound: CN/C(=N/CCSCc1nc[nH]c1C)NC#N [cimetidine]

- effect of positive inhibitor on hOCT2 (hOCT2): Significant inhibitory effects
Compound: CO[C@H]1/C=C/O[C@@]2(C)Oc3c(C)c(O)c4c(O)c(c(/C=N/N5CCN(C)CC5)c(O)c4c3C2=O)NC(=O)/C(C)=C\C=C\[C@H](C)[C@H](O)[C@@H](C)[C@@H](O)[C@@H](C)[C@H](OC(C)=O)[C@@H]1C [rifampicin]

From paper PMC9640990 (Frontiers in Pharmacology, 2022)
